Laboratory results reported in the NIST ThermoML archive (doi:10.1016/j.jct.2016.07.023).
± gives the expanded uncertainty stated by the source.

Conditions: 303.15 K; 101.1 kPa; Crystal; flotation method

Cc1cc(C(=O)O)ccc1[N+](=O)[O-] [3-methyl-4-nitrobenzoic acid]
mass density: 1528.6 ± 2.7 kg/m3
